Biological target: p38 (Homo sapiens, UniProt Q16539)
Test: Protein Kinase Assay (33P incorporation from γ-[33P]ATP into GST-ATF-2)
Assay type: biochemical
Settings: 2 nM p38, preincubated 20 min at 30° C.; 10 uM cold ATP, 2 uM GST-ATF2, 70 min; read-out: ACT. (Activity), IC50 category in Protein Kinase Assay
How it was run: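 Compounds preincubated 20 min at 30 °C with 2 nM p38; reaction started with 2 uM GST-ATF-2 (aa 19-96) and 10 uM ATP plus γ-[33P]ATP, pH 7.5, 70 min at 30 °C, 2% DMSO. Phosphoric acid stop; 33P-labelled substrate captured on phosphocellulose and counted by scintillation.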

p38, sequence (Q16539 whole entry): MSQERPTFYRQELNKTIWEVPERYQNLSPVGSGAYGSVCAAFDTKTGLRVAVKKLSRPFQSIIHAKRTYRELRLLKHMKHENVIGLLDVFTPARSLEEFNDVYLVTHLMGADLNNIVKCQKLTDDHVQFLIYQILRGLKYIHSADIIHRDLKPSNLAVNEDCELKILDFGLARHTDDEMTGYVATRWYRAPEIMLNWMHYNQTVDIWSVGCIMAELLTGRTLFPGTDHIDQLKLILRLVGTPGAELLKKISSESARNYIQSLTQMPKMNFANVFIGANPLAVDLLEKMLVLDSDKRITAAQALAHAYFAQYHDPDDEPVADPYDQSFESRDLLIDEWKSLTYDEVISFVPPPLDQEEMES

IC50 [nM] | SMILES
< 100 | Cc1ccc(NC(=O)Nc2sc(C(C)(C)C)cc2C(=O)N2CCN(C)C(=O)C2(C)C)cc1-c1ccc(OC(C)C)nc1 [1-(5-tert-butyl-3-(2,2,4-trimethyl-3-oxopiperazine-1-carbonyl)thiophen-2-yl)-3-(3-(6-isopropoxypyridin-3-yl)-4-methylphenyl)urea]
< 100 | Cc1ccc(NC(=O)Nc2sc(C(C)(C)C)cc2C(=O)N2CCNC(=O)C2(C)C)cc1-c1ccc(OCCCc2ccccn2)nc1 [1-(5-tert-butyl-3-(2,2-dimethyl-3-oxopiperazine-1-carbonyl)thiophen-2-yl)-3-(4-methyl-3-(6-(3-(pyridin-2-yl)propoxy)pyridin-3-yl)phenyl)urea]
< 100 | Cc1ccc(NC(=O)Nc2sc(C(C)(C)C)cc2C(=O)N2CCN(C)C(=O)C2(C)C)cc1-c1ccc(N2CCOCC2)nc1 [1-(5-tert-butyl-3-(2,2,4-trimethyl-3-oxopiperazine-1-carbonyl)thiophen-2-yl)-3-(4-methyl-3-(6-morpholinopyridin-3-yl)phenyl)urea]
< 100 | Cc1ccc(NC(=O)Nc2cn(C(C)(C)C)nc2C(=O)N2CCN(C)C(=O)C2(C)C)cc1-c1ccc(C(C)C)nc1 [1-(1-tert-butyl-3-(2,2,4-trimethyl-3-oxopiperazine-1-carbonyl)-1H-pyrazol-4-yl)-3-(3-(6-isopropylpyridin-3-yl)-4-methylphenyl)urea]
< 100 | Cc1ccc(NC(=O)Nc2sc(C(C)(C)C)cc2C(=O)N2CCNC(=O)C2(C)C)cc1-c1ccc(C(C)O)nc1 (centres unmarked) [1-(5-tert-butyl-3-(2,2-dimethyl-3-oxopiperazine-1-carbonyl)thiophen-2-yl)-3-(3-(6-(1-hydroxyethyl)pyridin-3-yl)-4-methylphenyl)urea]
< 100 | Cc1ccc(NC(=O)Nc2sc(C(C)(C)C)cc2C(=O)N2CCNC(=O)C2(C)C)cc1-c1ccc(CN)nc1 [1-(3-(6-(aminomethyl)pyridin-3-yl)-4-methylphenyl)-3-(5-tert-butyl-3-(2,2-dimethyl-3-oxopiperazine-1-carbonyl)thiophen-2-yl)urea]
< 100 | Cc1ccc(NC(=O)Nc2sc(C(C)(C)C)cc2C(=O)N2CCNC(=O)C2(C)C)cc1-c1cc[n+]([O-])cc1 [4-(5-(3-(5-tert-butyl-3-(2,2-dimethyl-3-oxopiperazine-1-carbonyl)thiophen-2-yl)ureido)-2-methylphenyl)pyridine 1-oxide]
< 100 | CC(C)(C)c1cc(C(=O)N2CCNC(=O)C2(C)C)c(NC(=O)Nc2ccc(F)c(-c3ccc(OCCN4CCOCC4)nc3)c2)s1 [1-(5-tert-butyl-3-(2,2-dimethyl-3-oxopiperazine-1-carbonyl)thiophen-2-yl)-3-(4-fluoro-3-(6-(2-morpholinoethoxy)pyridin-3-yl)phenyl)urea]
< 100 | Cc1ccc(NC(=O)Nc2sc(C(C)(C)C)cc2C(=O)N2CCN(C)C(=O)C2(C)C)cc1-c1ccc(C[N+]2([O-])CCOCC2)nc1 [4-((5-(5-(3-(5-tert-butyl-3-(2,2,4-trimethyl-3-oxopiperazine-1-carbonyl)thiophen-2-yl)ureido)-2-methylphenyl)pyridin-2-yl)methyl)morpholine 4-oxide]
< 100 | Cc1ccc(NC(=O)Nc2cc(C(C)(C)C)sc2C(=O)N2CCN(C)C(=O)C2(C)C)cc1-c1ccc(N2CCOCC2)nc1 [1-(5-tert-butyl-2-(2,2,4-trimethyl-3-oxopiperazine-1-carbonyl)thiophen-3-yl)-3-(4-methyl-3-(6-morpholinopyridin-3-yl)phenyl)urea]
< 100 | Cc1ccc(NC(=O)Nc2sc(C(C)(C)C)cc2C(=O)N2CCNC(=O)C2(C)C)cc1-c1ccc(N(C)C)nc1 [1-(5-tert-butyl-3-(2,2-dimethyl-3-oxopiperazine-1-carbonyl)thiophen-2-yl)-3-(3-(6-(dimethylamino)pyridin-3-yl)-4-methylphenyl)urea]
< 100 | Cc1ccc(NC(=O)Nc2sc(C(C)(C)C)cc2C(=O)N2CCNC(=O)C2(C)C)cc1C#CCOC1CCOCC1 [1-(5-tert-butyl-3-(2,2-dimethyl-3-oxopiperazine-1-carbonyl)thiophen-2-yl)-3-(4-methyl-3-(3-(tetrahydro-2H-pyran-4-yloxy)prop-1-ynyl)phenyl)urea]
< 100 | COc1ccc(NC(=O)Nc2sc(C(C)(C)C)cc2C(=O)N2CCNC(=O)C2(C)C)cc1-c1ccncc1 [1-(5-tert-butyl-3-(2,2-dimethyl-3-oxopiperazine-1-carbonyl)thiophen-2-yl)-3-(4-methoxy-3-(pyridin-4-yl)phenyl)urea]
< 100 | COCCNC(=O)c1ccc(-c2cc(NC(=O)Nc3sc(C(C)(C)C)cc3C(=O)N3CCN(C)C(=O)C3(C)C)ccc2C)cn1 [5-(5-(3-(5-tert-butyl-3-(2,2,4-trimethyl-3-oxopiperazine-1-carbonyl)thiophen-2-yl)ureido)-2-methylphenyl)-N-(2-methoxyethyl)pyridine-2-carboxamide]
< 100 | Cc1ccc(NC(=O)Nc2sc(C(C)(C)C)cc2C(=O)N2CCN(C)C(=O)C2(C)C)cc1-c1ccc(CN2CCCC2)nc1 [1-(5-tert-butyl-3-(2,2,4-trimethyl-3-oxopiperazine-1-carbonyl)thiophen-2-yl)-3-(4-methyl-3-(6-(pyrrolidin-1-ylmethyl)pyridin-3-yl)phenyl)urea]
< 100 | COc1ccc(-c2cc(NC(=O)Nc3sc(C(C)(C)C)cc3C(=O)N3CCNC(=O)C3(C)C)ccc2C)nc1 [1-(5-tert-butyl-3-(2,2-dimethyl-3-oxopiperazine-1-carbonyl)thiophen-2-yl)-3-(3-(5-methoxypyridin-2-yl)-4-methylphenyl)urea]
< 100 | CCc1ccc(-c2cc(NC(=O)Nc3cc(C(C)(C)C)sc3C(=O)N3CCN(C)C(=O)C3(C)C)ccc2C)cn1 [1-(5-tert-butyl-2-(2,2,4-trimethyl-3-oxopiperazine-1-carbonyl)thiophen-3-yl)-3-(3-(6-ethylpyridin-3-yl)-4-methylphenyl)urea]
< 100 | Cc1ccc(NC(=O)Nc2sc(C(C)(C)C)cc2C(=O)N2CCNC(=O)C2(C)C)cc1C#C[Si](C)(C)C [1-(5-tert-butyl-3-(2,2-dimethyl-3-oxopiperazine-1-carbonyl)thiophen-2-yl)-3-(4-methyl-3-(2-(trimethylsilyl)ethynyl)phenyl)urea]
< 100 | Cc1ccc(NC(=O)Nc2sc(C(C)(C)C)cc2C(=O)N2CCN(C)C(=O)C2(C)C)cc1-c1ccc(-n2ccnc2)nc1 [1-(3-(6-(1H-imidazol-1-yl)pyridin-3-yl)-4-methylphenyl)-3-(5-tert-butyl-3-(2,2,4-trimethyl-3-oxopiperazine-1-carbonyl)thiophen-2-yl)urea]
< 100 | C#Cc1ccc(-c2cc(NC(=O)Nc3sc(C(C)(C)C)cc3C(=O)N3CCNC(=O)C3(C)C)ccc2C)cn1 [1-(5-tert-butyl-3-(2,2-dimethyl-3-oxopiperazine-1-carbonyl)thiophen-2-yl)-3-(3-(6-ethynylpyridin-3-yl)-4-methylphenyl)urea]
< 1000 | Cc1ccc(NC(=O)Nc2sc3c(c2C(=O)N2CCN(C)C(=O)C2(C)C)CCOC3)cc1-c1ccc(CN2CCOCC2)nc1 [1-(4-methyl-3-(6-(morpholinomethyl)pyridin-3-yl)phenyl)-3-(3-(2,2,4-trimethyl-3-oxopiperazine-1-carbonyl)-5,7-dihydro-4H-thieno[2,3-c]pyran-2-yl)urea]
< 100 | CC(C)(C)c1cc(C(=O)N2CCNC(=O)C2(C)C)c(NC(=O)Nc2cccc(-c3ccc(OCCCN4CCOCC4)nc3)c2)s1 [1-(5-tert-butyl-3-(2,2-dimethyl-3-oxopiperazine-1-carbonyl)thiophen-2-yl)-3-(3-(6-(3-morpholinopropoxy)pyridin-3-yl)phenyl)urea]
< 100 | Cc1ncc(NC(=O)Nc2sc(C(C)(C)C)cc2C(=O)N2CCN(C)C(=O)C2(C)C)cc1C#CC1CC1 [1-(5-tert-butyl-3-(2,2,4-trimethyl-3-oxopiperazine-1-carbonyl)thiophen-2-yl)-3-(5-(cyclopropylethynyl)-6-methylpyridin-3-yl)urea]
< 100 | Cc1ccc(NC(=O)Nc2cc(C(C)(C)C)sc2C(=O)N2CCNC(=O)C2(C)C)cc1-c1ccc(CN2CCOCC2)nc1 [1-(5-tert-butyl-2-(2,2-dimethyl-3-oxopiperazine-1-carbonyl)thiophen-2-yl)-3-(4-methyl-3-(6-(morpholinomethyl)pyridin-3-yl)phenyl)urea]
< 100 | Cc1ccc(NC(=O)Nc2sc(C(C)(C)C)cc2C(=O)N2CCNC(=O)C2(C)C)cc1-c1c(C)noc1C [1-(5-tert-butyl-3-(2,2-dimethyl-3-oxopiperazine-1-carbonyl)thiophen-2-yl)-3-(3-(3,5-dimethylisoxazol-4-yl)-4-methylphenyl)urea]
< 100 | CCOc1ccc(-c2cc(NC(=O)Nc3cn(C(C)(C)C)nc3C(=O)N3CCN(C)C(=O)C3(C)C)ccc2C)cn1 [1-(1-tert-butyl-3-(2,2,4-trimethyl-3-oxopiperazine-1-carbonyl)-1H-pyrazol-4-yl)-3-(3-(6-ethoxypyridin-3-yl)-4-methylphenyl)urea]
< 100 | C#Cc1cc(NC(=O)Nc2sc(C(C)(C)C)cc2C(=O)N2CCNC(=O)C2(C)C)ccc1C [1-(5-tert-butyl-3-(2,2-dimethyl-3-oxopiperazine-1-carbonyl)thiophen-2-yl)-3-(3-ethynyl-4-methylphenyl)urea]
< 100 | Cc1ccc(NC(=O)Nc2cn(C(C)(C)C)nc2C(=O)N2CCNC(=O)C2(C)C)cc1-c1ccc(C(C)C)nc1 [1-(1-tert-butyl-3-(2,2-dimethyl-3-oxopiperazine-1-carbonyl)-1H-pyrazol-4-yl)-3-(3-(6-isopropylpyridin-3-yl)-4-methylphenyl)urea]
< 100 | Cc1ccc(NC(=O)Nc2cc(C(C)(C)C)oc2C(=O)N2CCNC(=O)C2(C)C)cc1-c1ccc(OCCN(C)C)nc1 [1-(5-tert-butyl-2-(2,2-dimethyl-3-oxopiperazine-1-carbonyl)furan-3-yl)-3-(3-(6-(2-(dimethylamino)ethoxy)pyridin-3-yl)-4-methylphenyl)urea]

— US20100041642A1, “UREA INHIBITORS OF MAP KINASES” (LOCUS PHARMACEUTICALS, INC., priority 2008, published 2010)
